# According to patent US10501472B2, “Method to isolate inoscavin a from Fulviformes fastuosus and medicinal preparation thereof to treat rhabdomyosarcoma cancer conditions” (University of Colombo, priority 2015, dated 2019):
# pIC50: −log10 of the molar value. Entries after “also recorded” stand apart in the source; their conditions may differ. Read-outs that look alike come from different tables or passages of the source.
# Columns and labels:
# [1] = tested on: RD cell line (human rhabdomyosarcoma); assay: MTT assay, antiproliferative activity against RD cell line; format: cell-based
# Experimental: (§1) RD and CC-1 cell lines were cultured in DMEM supplemented with 10% heat inactivated fetal bovine serum (FBS), 3% glutamine, sodium bicarbonate and antibiotic (penicillin/streptomycin). The cells were incubated at 37° C. in a humidified CO2 incubator.
# Antiproliferative activities of inoscavin A against RD and CC-1 cells were determined using MTT (3, 4, 5-(dimethyl-thiazol-2-yl) 2-5-diphenyl tetrazolium bromide) assay. Metabolically active cells reduce MTT in to purple colored formazan crystals. Adherent cell lines were transferred with 0.12% trypsin and 0.5% EDTA and cells (2×10^5 cells/well) were seeded in 24-well plates and incubated overnight with 1 mL of the DMEM medium described above. The stock solution of inoscavin A was prepared in DMSO at a concentration of 1 mg/ml and subsequently diluted up to 1000 ng/ml in order to prepare the working standards. The resulting monolayers of RD cells and CC-1 cells (70% confluence) were treated with different concentrations of the test solution and incubated for 24 hours at 37° C.
# In all experiments, cycloheximide (5 mM, 50 μl) was used as the positive control and negative control contained 0.25% DMSO in growth media. The culture medium was replaced with fresh medium (1 ml) after 24 hours and MTT (5 mg/ml; 100 μl) was added to each well. The cells were incubated at 37° C. for 3 hours and the medium was aspirated carefully. The remaining formazan crystals were solubilized with 750 μl of 0.05 M HCl (in 2-propanol) and absorbance was measured at 570 nm. Percentage cell viability was determined using the equation below.
# The net absorbance from the wells of the untreated cells (negative control) was taken as the 100% viability. IC50 of the test solution against RD cells was determined by regression analysis of the corresponding dose response curve. CC50 of the test solution against CC-1 cell line was also calculated using the regression analysis. Safety of the compound for normal cells was determined in terms of selectivity index (SI) by calculating the ratio of CC50/IC50. SI value>2 is considered as safe.
# [2] = tested on: CC-1 cell line (normal epithelial cells); assay: MTT assay, cytotoxicity against normal CC-1 cell line; format: cell-based, mice; conditions: CC50 in CC-1 cells / IC50 in RD cells
# Experimental: as §1
# Antiproliferative activities of inoscavin A against RD and CC-1 cells were determined using MTT (3, 4, 5-(dimethyl-thiazol-2-yl) 2-5-diphenyl tetrazolium bromide) assay. Metabolically active cells reduce MTT in to purple colored formazan crystals. Adherent cell lines were transferred with 0.12% trypsin and 0.5% EDTA and cells (2×10^5 cells/well) were seeded in 24-well plates and incubated overnight with 1 mL of the DMEM medium described above. […]
# In all experiments, cycloheximide (5 mM, 50 μl) was used as the positive control and negative control contained 0.25% DMSO in growth media. […] The remaining formazan crystals were solubilized with 750 μl of 0.05 M HCl (in 2-propanol) and absorbance was measured at 570 nm. Percentage cell viability was determined using the equation below.
# The net absorbance from the wells of the untreated cells (negative control) was taken as the 100% viability. IC50 of the test solution against RD cells was determined by regression analysis of the corresponding dose response curve. CC50 of the test solution against CC-1 cell line was also calculated using the regression analysis. […]
# [3] = tested on: RD cells; assay: Ethidium bromide/acridine orange staining for apoptosis; format: cell-based, human; conditions: 24 hours
# Experimental: Ethidium bromide and acridine orange staining were performed to investigate the apoptosis induced by inoscavin A against RD cells. Ethidium bromide (EB) is only occupied by cells with damaged cell membranes. Acridine orange (AO) permeates via both live and dead cells. Cells were seeded in chamber slides and the confluent layer was treated with the test solution containing inoscavin A at different concentrations for 24 hours at 37° C. as described previously. The adherent cells were washed with 200 μL of PBS and 2 μL of the dye mixture containing ethidium bromide ([…]) and acridine orange ([…]) was placed on each well of the chamber slide. Chamber slides were examined immediately under the fluorescence microscope. Images were photographed using a Nikon D 700 camera connected to the microscope.
# [4] = tested on: RD cells; assay: Microscopic examination of morphological changes of treated cells; format: cell-based, human; conditions: highest concentration 50 ng/mL, 24 hours
# Experimental: The morphological changes of RD cells and CC-1 cells after the treatment with different concentrations of the test solution over 24 hours were detected by microscopic examination of cells. Morphological changes were compared with the negative and positive controls under fluorescence microscope.
compound,measurement,setting,value
"CC1=CC(=O)C2(O1)c1c(cc(/C=C/c3ccc(O)c(O)c3)oc1=O)OC2c1ccc(O)c(O)c1 (stereo not shown) [inoscavin A, 2-(3,4-dihydroxyphenyl)-6-[(E)-2-(3,4-dihydroxyphenyl)ethenyl]-5′-methylspiro[2H-furo[3,2-c]pyran-3,2′-furan]-3′,4-dione]",pIC50,"[1]; Homo sapiens, RD, MTT, 24 hour treatment, mean of three independent sample preparations, read-out: IC50 against RD cells",7.55
same,IC50,"[1]; Homo sapiens, RD, MTT, 24 hour treatment, read-out: IC50 against RD cell line",0.0128 µg/mL
same,maximum inhibition of cell growth,"[1]; RD cells, concentrations over 60 ng/mL to 100 ng/mL",75%
same,antiproliferative activity relative to mangiferin,"[1]; RD cells, inoscavin A versus mangiferin",approximately 2500 times
same,"selectivity index (SI), ratio of CC50/IC50",[2],6185.18
same,apoptosis induction (AO/EB staining),[3],confirmed the apoptosis induced by inoscavin A; also recorded: mediated through apoptosis
same,morphological changes of RD cells,[4],detached and round shape dead cells
